Test results published in US20100092443A1, “NOVEL COMBINATIONS OF NITROGENATED HETEROCYCLIC ANTIBACTERIAL COMPOUNDS WITH OTHER ANTIBACTERIAL COMPOUNDS AND THE USE OF SAME AS DRUGS” (priority 2008, published 2010).
≈ marks a conversion by molar mass, not a printed value. Like-named read-outs stand apart in the source and are kept apart here. One block for each compound: values may come before it.

Tests used:
[1] = system: C. freundii; experiment: MIC, dilutions in liquid medium, alone and combined with NXL105; type: cell-based; conditions: Citrobacter freundii, read-out: MIC
[2] = system: K. oxytoca; experiment: as above; type: cell-based; conditions: Klebsiella oxytoca, read-out: MIC
[3] = system: E. aerogenes; experiment: as above; type: cell-based; conditions: Klebsiella aerogenes, 24 h; E. aerogenes EAR2; Case-R + FEP-R; read-out: MIC
[4] = system: E. coli; experiment: microbe, parasite or virus in culture; type: cell-based; conditions: Escherichia coli
Procedure: (§1) In vitro activity, method of dilutions in liquid medium:
(§2) A series of test 96-well microtiter plates are prepared in which the same quantity of sterile nutritive medium is distributed. […] After 24 h of incubation in a 37° C. oven, growth inhibition is evaluated by transillumination, which makes it possible to determine the minimum inhibitory concentrations (MICS) expressed in μg/ml.

[5] = system: K. pneumoniae; experiment: MIC, dilutions in liquid medium, alone and combined with NXL105; type: cell-based; conditions: Klebsiella pneumoniae, read-out: MIC
Procedure: as §1, §2

[6] = system: E. cloacae; experiment: as above; type: cell-based; conditions: Enterobacter cloacae, AmpC, read-out: MIC
Procedure: as §1, §2

[7] = system: P. aeruginosa (391 HT2); experiment: MICs determined on microplates; type: cell-based, Pseudomonas aeruginosa; conditions: Pseudomonas aeruginosa; sensitive strain P. aeruginosa 391 HT2
Procedure: (§3) The minimum inhibitory concentrations (MICs) of the products to be tested (products alone and combinations) are determined in advance. • For each concentration of product to be tested as well as the control stock, an Erlenmeyer flask containing 18.5 ml Muller-Hinton medium (Ca^++) is prepared. • From an overnight culture in broth or a bacterial suspension of OD (optical density)=1, a 1/100 dilution is prepared. • The sample is cultured with agitation for 2 h at 37° C. • OD is measured: if >0.5, the sample is diluted to 1/10. • Each Erlenmeyer flask is inoculated with 1 ml of the agitated culture or its dilution. The initial inoculum should be 1×10^6 CFU/ml. • The various antibiotic solutions are added at a volume of 0.5 ml and 0.5 ml of medium in the control Erlenmeyer flask. • With a volume of 0.1 ml, the control Erlenmeyer flask is numbered=TO. • The flask is incubated at 37° C. with agitation. • At each sampling point (2, 4, 6, 24, 48 hours), a volume of 0.1 ml is sampled from each Erlenmeyer flask and numbered. • Plates for all the numbered samples are incubated (24 h-48 h) at 37° C.
Bactericidal activity was evaluated on a sensitive strain of P. aeruginosa (391 HT2)

[8] = system: P. aeruginosa (391 HT2); experiment: MICs in a volume of 10 ml, bactericidal conditions (exponential bacterial growth); type: cell-based, Pseudomonas aeruginosa; conditions: Pseudomonas aeruginosa
Procedure: as §3
For the bactericidal tests, MICs are determined in a volume of 10 ml-bactericidal conditions (exponential bacterial growth): […]

SMILES: C[C@H]1[C@H](NC(=O)/C(=N\OC(C)(C)C(=O)O)c2csc(N)n2)C(=O)N1S(=O)(=O)O [Aztreonam]
MIC ([1]; 24 h, C. freundii (no alias), AmpC + TEM-1): 16 µg/mL | MIC ([1]; C. freundii (no alias, table row r121), AmpC): 8 µg/mL | MIC ([1]; C. freundii (no alias, table row r122), AmpC): 32 µg/mL | MIC ([1]; C. freundii (no alias, table row r123), AmpC): 16 µg/mL | MIC ([1]; C. freundii (no alias, table row r125), AmpC): 4 µg/mL | MIC ([2]; K. oxytoca 1431, TEM-129): > 32 µg/mL | MIC ([2]; K. oxytoca 16944, OXY-2, TEM-1): 32 µg/mL | MIC [3]: 16 µg/mL | MIC ([4]; 24 h, E. coli 2138, KPC-2 + TEM-1): 32 µg/mL | MIC ([4]; 24 h, E. coli (no alias), CTX-M-15 + TEM-1 + OXA-1): 4 µg/mL | MIC ([4]; 24 h, E. coli IND, VEB-1 + CMY-2): > 32 µg/mL | MIC ([4]; 24 h, E. coli TN06, CTX-M-2 + TEM-1): 8 µg/mL | MIC ([4]; 24 h, E. coli TN13, CTX-M-14 + CMY-2 + TEM-1): 16 µg/mL | MIC ([4]; 24 h, E. coli Tunisie clone E4, CTX-M-16 + TEM-1): 32 µg/mL | MIC ([4]; E. coli (no alias), Cephalosporinase, read-out: MIC): 16 µg/mL (≈ 36.7 µM) | MIC ([4]; E. coli (no alias), SHV-4): 16 µg/mL (≈ 36.7 µM) | MIC ([4]; E. coli (no alias), TEM-3): 8 µg/mL (≈ 18.4 µM) | MIC ([5]; 24 h, K. pneumoniae 60, SHV-2 + TEM-2 + PER): 16 µg/mL | MIC ([5]; 24 h, K. pneumoniae 157, SHV-5 + TEM-26): 16 µg/mL | MIC ([5]; 24 h, K. pneumoniae 236, SHV-5 + TEM-10): 16 µg/mL | MIC ([5]; 24 h, K. pneumoniae 253, SHV-2 + TEM-12 + CTX-M-2): 16 µg/mL | MIC ([5]; 24 h, K. pneumoniae 427, SHV-1 + TEM-1B + CTX-M-3): 4 µg/mL | MIC ([5]; 24 h, K. pneumoniae 441, SHV-1 + TEM-2 + PER): 16 µg/mL | MIC ([5]; 24 h, K. pneumoniae 444, SHV-5 + TEM-2 + PER): 8 µg/mL | MIC ([5]; 24 h, K. pneumoniae 1734, FOX-3 + TEM-1): 8 µg/mL | MIC ([5]; 24 h, K. pneumoniae 9701, CMY-4 + TEM-1): 16 µg/mL | MIC ([5]; 24 h, K. pneumoniae Patient 1BHR, VIM-4 + CTX-M-15 = CMY-4 + TEM-1): 16 µg/mL | MIC ([5]; 24 h, K. pneumoniae SLK54, ACC-1 + TEM-1): 2 µg/mL | MIC ([5]; 24 h, K. pneumoniae TN58467, DHA-1 + SHV-2a + TEM-1): 16 µg/mL | MIC ([5]; ATCC700603, K. pneumoniae ATCC 700603, SHV-18): 8 µg/mL | MIC ([5]; K. pneumoniae 26, SHV-5): 16 µg/mL | MIC ([5]; K. pneumoniae KP04, CTX-M-14): 16 µg/mL | MIC ([5]; K. pneumoniae VAKP, KPC-2): 16 µg/mL | MIC ([6]; E. cloacae (no alias)): 16 µg/mL | MIC ([6]; E. cloacae): 16 µg/mL

MIC [7]: 1 µg/mL
SMILES: O=C(O)c1cn(C2CC2)c2cc(N3CCNCC3)c(F)cc2c1=O [Ciprofloxacine]

MIC [7]: 1 µg/mL
SMILES: NC[C@H]1O[C@H](O[C@H]2[C@H](O)[C@@H](O[C@H]3O[C@H](CO)[C@@H](O)[C@H](N)[C@H]3O)[C@H](N)C[C@@H]2N)[C@H](N)C[C@@H]1O [Tobramycin]
MIC [8]: 1 µg/mL
